As a reminder, the IC50 is the concentration that inhibits the measured activity by half.

For this assay, the system named is ApoB-100-associated lipoproteins (HepG2 cells). Put plainly: Inhibition of the release of ApoB-100-associated lipoproteins from HepG2 liver cells (immunoassay of culture supernatant). It counts as cell-based. The following applies: Homo sapiens, substance concentration at which light absorption (450 nm) is inhibited by 50% vs solvent control, read-out: Apo B IC50. As to the method:
The test for detection of the inhibition of the release of ApoB-100-associated lipoproteins from liver cells was carried out in vitro using cultured liver cells, preferably using cells of the human line HepG2. These cells are cultured under standard conditions in medium for the culture of eucaryotic cells, preferably in RPMI 1640 using 10% foetal calf serum. HepG2 cells synthesize and secrete into the culture supernatant ApoB-100-associated lipoprotein particles, which in principle are of similar construction to the VLDL or LDL particles which are to be, found in the plasma.
These particles can be detected using an immunoassay for human LDL. This immunoassay is carried out using antibodies which have been induced under standard conditions in the rabbit to human LDL. The anti-LDL antibodies (rabbit anti-LDL-Ab) were purified by affinity chromatography on an immunosorbent using human LDL. These purified rabbit anti-LDL-Ab are adsorbed onto the surface of plastic. […] The immune complex on the plastic surface is detected using monoclonal antibodies which have been induced against human LDL and purified according to standard conditions. […] After acidification of the reaction mixture with H2 SO4, the specific light absorption at 450 nm is determined, which is a measure of the amount of ApoB-100-associated particles which have been secreted into the culture supernatant by the HepG2 cells. […]

`CCCCCNC(=O)[C@H](c1ccc(Cn2c3ccccc3c3c(C)cc(C)nc32)cc1)C1CCCC1` [Example 20]: the half-maximal inhibitory concentration (IC50) came out at 12.5 nM.
Take `Cc1cc(C)c2c3ccccc3n(Cc3ccc([C@@H](C(=O)Nc4ccccc4)C4CCCC4)cc3)c2n1` [Example 2]: the IC50 is 8.2 nM.

(Values after patent US6194424A, “Arylacetamides and their use as medicaments” (Bayer Aktiengesellschaft, priority 1996, dated 2001).)
